Legend:
Beta2/neuroD = assay: Affymetrix gene chip analysis of KKAy islets: Beta2/neuroD; type: in vivo, mice; settings: ISV vs. KKAy control islets, 9 weeks
Method: (§1) cRNA preparation and in vitro transcription: In total 6 Affymetrix arrays MOE430 2.0 probe array cartridge were used i.e. for analysis of 3 replicas for the KKAy control group and the ISV group, respectively. Each of the 6 samples consisted of pooled RNA from 3-4 KKAy mice. Preparation of target for hybridization was prepared from 340 ng of total RNA using MessageAmp™ II aRNA Amplification Kits (Ambion), according to the manufacturers instructions. Arrays were hybridised and scanned as described elsewhere (Kruhoffer et al., 2005).

Ins1 = assay: Relative real time RT-PCR in islets of KKAy mice (Example 3): Ins1; type: in vivo; settings: 9 weeks
Method: Islets were isolated by the collagenase digestion technique. In brief, the animals were anesthetized with pentobarbital (50 mg/kg intraperitoneally) and midline laparotomy was performed. The pancreas was retrogradely filled with 3 mL ice-cold Hanks balanced salt solution (([HBSS] Sigma Chemical, St Louis, Mo.) supplemented with 0.3 mg/ml collagenase Boehringer Mannheim GmbH, Germany). The pancreas was subsequently removed and incubated for 19 minutes at 37° C. After rinsing in HBSS, the islets were handpicked under a stereomicroscope and immediately transferred to a tubes containing 1 ml Trizol (Gibco/Invitrogene, Calsbad, Calif., USA). The islets isolated from the NMRI mice were incubated overnight at 37° C. and 95% normal atmosphere/5% CO2 in 10 ml RPMI 1640 containing 11.1 mmol/L glucose supplemented with penicillin G and 100 μg/mL streptomycin (all Gibco/Invitrogene, Calsbad, Calif., USA).
For each group, islets from 3-4 mice (180-200 islets) were pooled in 1 ml Trizol reagent (Gibco/lnvitrogene, Calsbad, Calif., USA) before RNA purification. Total RNA was extracted according to the manufactures' instructions. RNA was quantified by measuring absorbance at 260 and 280 nm. The quality of the RNA was checked by the Agilent 2100 bioanalyzer (Agilent, Santa Clara, USA). […]

GLUT-2 = assay: Gene expression in islets from diabetic KKAy-mice, real time RT-PCR (Example 2): GLUT-2; type: in vivo; settings: islets of KKAy-mice after nine weeks treatment, normalized to 18S rRNA
Method: (§2) A the end of the nine week period of the in vivo study in example 1 RNA was purified from Islets, muscle, liver and fat from the three experimental groups, using standard techniques as described in Kiergen, RNA easy.
(§3) Gene expression of PDX-1, IRS1, Beta2, 11beta-HSD-1, Akt1, C/EBP-alpha, CPT1, GLUT2, IGF1, IR and Ins1 was measured with Real time RT-PCR using Taq Man Assays normalized to 18S rRNA, using the standard protocol (ABI, USA). All reagents were obtained from (ABI, USA). All probes are standard probes obtainable from ABI, USA, under the specific probe code number, given in respect of each gene.

Beta2 = assay: Gene expression in islets from diabetic KKAy-mice, real time RT-PCR (Example 2): Beta2; type: in vivo; settings: islets of KKAy-mice after nine weeks treatment, normalized to 18S rRNA
Method: as §2, §3

InsI = assay: Affymetrix gene chip analysis of KKAy islets: InsI; type: in vivo, mice; settings: ISV vs. KKAy control islets, 9 weeks
Method: as §1

diabetic KKAy-mice = assay: In vivo study of plasma concentrations of insulin, glucose and triglycerides in KKAy-mice after isosteviol or soybean protein (Example 1); settings: oral in diet
Method: The following experiment was performed to investigate the effect of isosteviol (ISV) and soybean protein on plasma concentrations of insulin, glucose and triglycerides. Four experimental groups, each consisting of 10 KKAy-mice (obtained from Clea Japan, Tokyo, Japan) and one control group of 20 C57 mice (obtained from Taconic, Ry, Denmark), all 5 weeks old, were feed the following three test diets in a period of nine weeks. • A: standard chow diet (SCD)(ALTROMIN 1320, Brogaarden, Hørsholm). Diet A was fed to one experimental group and to the control group. • B: standard chow diet (SCD) (ALTROMIN 1320, Brogaarden, Hørsholm)+0.02 g/kg BW of ISV (Waco Chemicals, Osaka, Japan). • C: diet containing 50 weight-% standard chow+50 weight-% Soybean Protein (SBP) (NutriPharma, Oslo)
Hormones and lipids were measured from blood sample at start and end of the treatment period. Fasting blood glucose as well as body weight were measured once a week. […] The blood was taken from the tail of the animals.
Isosteviol (ISV) and Soybean Protein (SBP) were given orally. The SBP were incorporated in the food pellet and the ISV was dissolved in absolute ethanol, the solution was inoculated on the pellets and the ethanol was allowed to evaporate, leaving the ISV on the food pellet. All diets were adjusted for vitamins and minerals, so that all diets content the same amount. Beside that, water was given ad libitum and a light cycle of 12 hours/12 hours was used. The experiment was performed in accordance with the guidelines of the Danish Council on Animal Care.

[1] = after 9 weeks of treatment, compared to standard chow diet, ISV 0.02 g/kg BW, SBP 50 weight-% of diet

C[C@@]12CC[C@@H]3[C@@](CC[C@H]4[C@@]3(C)CCC[C@@]4(C)C(=O)O)(CC1=O)C2 (single isomer, unassigned; ent-16) [ISV, ent-16-ketobeyeran-19-oic acid]
array: change of Beta2/neuroD expression (Beta2/neuroD): upregulation | increase in Ins1 expression (Ins1; RT-PCR): more than 2 fold | increased expression of Ins1, ISV group vs. control group (Ins1; normalized to 18S rRNA): 132% | increased expression of GLUT-2 compared to standard diet (GLUT-2): 60% | increased expression of beta2 compared to standard diet (Beta2): 60% | array: change of InsI expression (InsI): did not show any statistical significant increase | reduction of plasma glucose concentration, SCD vs. treatment (diabetic KKAy-mice; [1]): 73% | reduction of plasma insulin concentration, SCD vs. treatment (diabetic KKAy-mice; [1]): 192% | plasma triglyceride concentration, SCD vs. treatment (diabetic KKAy-mice; nine weeks treatment): 101%

Reference: patent US20100093861A1, “TREATMENT OF INSULIN RESISTANCE OR DISEASES ASSOCIATED WITH INSULIN RESISTANCE” (Stevia ApS, priority 2006, published 2010)
